Reference: ChEMBL document CHEMBL1201862, “PubChem BioAssay data set” (2004)
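Each compound was tested at five concentrations against cells in 96-well plates for 48 hours. Abbreviation: GI50, concentration required for 50% inhibition of growth.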 Activity calls are given as the source filed them. Rule as the data show it: active = GI50 up to about 1.1 µM and inactive = higher.

What was measured:
Test in all cases: DTP human tumour cell line panel, 48 h
[1] = system: HCC 2998
[2] = system: LOX IMVI
[3] = system: U-251
[4] = system: IGROV-1
[5] = system: UO-31
[6] = system: UACC-62
[7] = system: OVCAR-3
[8] = system: SK-MEL-28
[9] = system: SNB-19
[10] = system: K562
[11] = system: SN12C
[12] = system: SF-295
[13] = system: RXF 393
[14] = system: RPMI-8226
[15] = system: Malme-3M
[16] = system: PC-3
[17] = system: OVCAR-8
[18] = system: DU-145
[19] = system: BT-549
[20] = system: OVCAR-4

Compound	GI50 [1]	GI50 [2]	GI50 [3]	GI50 [4]	GI50 [5]	GI50 [6]	GI50 [7]	GI50 [8]	GI50 [9]	GI50 [10]	GI50 [11]	GI50 [12]	GI50 [13]	GI50 [14]	GI50 [15]	GI50 [16]	GI50 [17]	GI50 [18]	GI50 [19]	GI50 [20]
N=C(N)N/N=C\c1c(-c2cccc([N+](=O)[O-])c2)nc2sc(Cl)cn12	2.31 µM (inactive)	3.7 µM (inactive)	3.17 µM (inactive)	1.8 µM (inactive)	1.71 µM (inactive)	27.5 µM (inactive)	3.24 µM (inactive)	2.21 µM (inactive)	2.45 µM (inactive)	0.575 µM (active)	2.6 µM (inactive)	2.31 µM (inactive)	2.19 µM (inactive)	2.22 µM (inactive)	2.42 µM (inactive)	2.13 µM (inactive)	2.75 µM (inactive)	2.48 µM (inactive)	2.39 µM (inactive)	1.54 µM (inactive)
N=C(N)NS(=O)(=O)c1ccc(NCc2c3ccccc3nc3ccccc23)cc1	7.38 µM (inactive)	0.946 µM (active)	0.354 µM (active)	23.4 µM (inactive)	18.6 µM (inactive)	1.1 µM (active)	11.6 µM (inactive)	47.3 µM (inactive)	0.711 µM (active)	2.72 µM (inactive)	0.637 µM (active)	2.45 µM (inactive)	11.9 µM (inactive)	2.82 µM (inactive)	4.75 µM (inactive)	16.1 µM (inactive)	3.78 µM (inactive)	1.83 µM (inactive)	7.16 µM (inactive)	39.5 µM (inactive)
C/C(=N\Nc1ccccc1Br)c1cccc(/C(C)=N/Nc2ccccc2Br)n1	> 100 µM (inactive)	> 100 µM (inactive)	> 100 µM (inactive)	80.7 µM (inactive)	> 100 µM (inactive)		68.1 µM (inactive)	> 100 µM (inactive)	63.1 µM (inactive)	39.7 µM (inactive)	> 100 µM (inactive)	34.4 µM (inactive)	19.7 µM (inactive)	> 100 µM (inactive)	66.8 µM (inactive)	42.8 µM (inactive)	> 100 µM (inactive)	> 100 µM (inactive)	> 100 µM (inactive)	> 100 µM (inactive)
CCOC(=O)C1=[N+]([O-])OC2=C(O)CCCC21 (stereo not given)	> 100 µM (inactive)	> 100 µM (inactive)	> 100 µM (inactive)	> 100 µM (inactive)	> 100 µM (inactive)	> 100 µM (inactive)	> 100 µM (inactive)	> 100 µM (inactive)	> 100 µM (inactive)	> 100 µM (inactive)	> 100 µM (inactive)	> 100 µM (inactive)	> 100 µM (inactive)	> 100 µM (inactive)	> 100 µM (inactive)	> 100 µM (inactive)	> 100 µM (inactive)	> 100 µM (inactive)	> 100 µM (inactive)	> 100 µM (inactive)
Clc1ccc(/C=N/C23CC4CC(CC(C4)C2)C3)c(Cl)c1	> 10 µM (inactive)	> 10 µM (inactive)	> 10 µM (inactive)	> 10 µM (inactive)		> 10 µM (inactive)	> 10 µM (inactive)	> 10 µM (inactive)	> 10 µM (inactive)	> 10 µM (inactive)	> 10 µM (inactive)	> 10 µM (inactive)	> 10 µM (inactive)	> 10 µM (inactive)	> 10 µM (inactive)	> 10 µM (inactive)	> 10 µM (inactive)	> 10 µM (inactive)	> 10 µM (inactive)	> 10 µM (inactive)
O=C(/C=C/c1ccccc1)NNC(=O)c1c(Cl)c(Cl)c(Cl)c(Cl)c1-c1nc2ccccc2[nH]1	21.7 µM (inactive)	27.1 µM (inactive)		6.49 µM (inactive)	19.5 µM (inactive)	15.7 µM (inactive)	28.4 µM (inactive)	39.5 µM (inactive)		25.2 µM (inactive)	21.6 µM (inactive)	0.0472 µM (active)	18.8 µM (inactive)	26.9 µM (inactive)	26.5 µM (inactive)	32.5 µM (inactive)	32 µM (inactive)	28.6 µM (inactive)	28.2 µM (inactive)	49.4 µM (inactive)
COc1ccc(CCc2ccc3c(c2)OCO3)cc1	79.4 µM (inactive)	73.6 µM (inactive)	33.7 µM (inactive)	70.5 µM (inactive)		> 100 µM (inactive)	31.6 µM (inactive)	> 100 µM (inactive)	> 100 µM (inactive)	38.5 µM (inactive)	> 100 µM (inactive)	65 µM (inactive)	21.9 µM (inactive)	36.6 µM (inactive)	> 100 µM (inactive)	34.6 µM (inactive)	> 100 µM (inactive)	43 µM (inactive)	62.5 µM (inactive)	68.7 µM (inactive)
